Test results as given in article PMC4503722, “Novel Phenotypic Outcomes Identified for a Public Collection of Approved Drugs from a Publicly Accessible Panel of Assays” (PLoS ONE, 2015).

Experiments:
NCI-H716 cells = assay: cells; type: cell-based, Human; conditions: for hNCI-H716 GLP1 Secretion IC50/EC50: assay number 12; for IC50/EC50, hNCI-H716 GLP1 Secretion (assay number 12): concentration response
STC-1 cell line = type: cell-based, mouse; conditions: for mSTC-1 GLP1 Secretion IC50/EC50: assay number 13; for IC50/EC50, mSTC-1 GLP1 Secretion (assay number 13): concentration response

Row | Molecule | hNCI-H716 GLP1 Secretion IC50/EC50 (NCI-H716 cells) [µM] | mSTC-1 GLP1 Secretion IC50/EC50 (STC-1 cell line) [µM] | other results
1 | C=Cc1c(C)c2cc3[nH]c(cc4nc(cc5nc(cc1[nH]2)C(C)=C5CCC(=O)O)C(CCC(=O)O)=C4C)c(C)c3C=C [NCGC00015844-10] | 19.5523 | > 40 | 
2 | NC[C@@H]1O[C@H](O[C@H]2[C@@H](O)[C@H](O[C@@H]3[C@@H](O)[C@H](N)C[C@H](N)[C@H]3O[C@H]3O[C@H](CN)[C@@H](O)[C@H](O)[C@H]3N)O[C@@H]2CO)[C@H](N)[C@@H](O)[C@@H]1O [NCGC00179612-03] |  |  | IC50/EC50, hNCI-H716 GLP1 Secretion (assay number 12) (NCI-H716 cells): > 40 µM; IC50/EC50, mSTC-1 GLP1 Secretion (assay number 13) (STC-1 cell line): > 40 µM
3 | COc1cc(Nc2c(C#N)cnc3cc(OCCCN4CCN(C)CC4)c(OC)cc23)c(Cl)cc1Cl [NCGC00241107-02] | 25.1177 | > 40 | 
4 | Nc1ccc(Cl)cc1C(=O)c1ccccc1F [NCGC00253725-01] | > 40 | > 40 | 
5 | COc1ccc(OC(=O)N(CC(=O)O)Cc2ccc(OCCc3nc(-c4ccccc4)oc3C)cc2)cc1 [NCGC00262954-01] | 36.168 | 1.5351 | 
6 | Cc1c(C)n(CCN(C)C)c2ccc(C(=O)OCCN(C)C)cc12 [NCGC00164483-03] | > 40 | 1.1962 | 
7 | Cc1c(C)c2c(c(C)c1OC(=O)CCC(=O)OCCO)CC[C@@](C)(CCC[C@H](C)CCC[C@H](C)CCCC(C)C)O2 [NCGC00183103-01] | > 40 | > 40 | 
8 | [Cl][Pt+2][Cl].[NH2-].[NH2-] [NCGC00263537-01] |  |  | IC50/EC50, hNCI-H716 GLP1 Secretion (assay number 12) (NCI-H716 cells): > 40 µM; IC50/EC50, mSTC-1 GLP1 Secretion (assay number 13) (STC-1 cell line): > 40 µM
9 | O=C(Nc1cccc2c(=O)cc(-c3nn[nH]n3)oc12)c1ccc(OCCCCc2ccccc2)cc1 [NCGC00181765-01] | > 40 | > 40 | 
10 | O=C(O)c1cc(N=Nc2ccc([O-])c(C(=O)O)c2)ccc1[O-].[Na+].[Na+] [NCGC00181008-02] | > 40 | 9.5352 | 
11 | propagermanium [reference compound] |  |  | activity in NCI-H716 GLP-1 secretion assay (in words) (NCI-H716 cells): potent actives; activity in STC-1 GLP-1 secretion assay (in words) (STC-1 cell line): potent actives
12 | CCCCC(CC)CN1CN(CC(CC)CCCC)CC(C)(N)C1 (centres unmarked) [NCGC00094819-07] | 36.4422 | 26.5729 | 
13 | Cc1cc(N)c2cc(NC(=O)Nc3ccc4nc(C)cc(N)c4c3)ccc2n1 [NCGC00013130-04] | 34.2472 | > 40 | 
14 | CC1=C(C(=O)O)N2C(=O)[C@@H](NC(=O)[C@H](N)c3ccccc3)[C@H]2SC1 [NCGC00159522-05] | > 40 | > 40 | 
15 | O=C1OC2(c3ccccc31)c1cc(I)c(O)c(I)c1Oc1c2cc(I)c(O)c1I [NCGC00166249-03] | > 40 | 2.9301 | 
16 | CCCCCCCCN[C@@H](C)[C@H](O)c1ccc(SC(C)C)cc1 [NCGC00018301-05] |  |  | IC50/EC50, hNCI-H716 GLP1 Secretion (assay number 12) (NCI-H716 cells): 13.0298 µM; IC50/EC50, mSTC-1 GLP1 Secretion (assay number 13) (STC-1 cell line): > 40 µM
